In ChEMBL document CHEMBL1157266, “A cyclopeptide from the Insect pathogenic fungus Cordyceps sp. BCC 1788” (J Nat Prod, 2006):
Where a SMILES comes first, the peptide text is derived from it. [ ]: non-standard residue; d: D form. NMeY = CN[C@@H](Cc1ccc(O)cc1)C(=O)O; dNMeF = CN[C@H](Cc1ccccc1)C(=O)O; Sar = CNCC(=O)O

Key:
[1] = test system: Vero; assay: Cytotoxicity against african green monkey Vero cells; assay type: cell-based; details: Chlorocebus sabaeus
[2] = test system: Plasmodium falciparum; assay: Antimalarial activity against Plasmodium falciparum K1 by [3H]hypoxanthine uptake; assay type: functional, organism-based

Row | IC50 [2] [µM] | Compound | IC50 [1] [µM]
1 | – | Cc1c2ccncc2c(C)c2c1[nH]c1ccccc12 [ELLIPTECINE] | 2.44
2 | 5.35 | CC[C@H](C)[C@@H]1NC(=O)[C@H](Cc2ccc(O)cc2)N(C)C(=O)[C@H](Cc2ccccc2)NC(=O)CN(C)C(=O)[C@@H]2CCCN2C(=O)[C@@H](Cc2ccccc2)N(C)C(=O)[C@H](CC(C)C)NC1=O [CORDYHEPTAPEPTIDE A] (cyclo(F[NMeY]IL[dNMeF]P[Sar])) | > 56.9
3 | 0.006 | C[C@H]1[C@@H](O)O[C@@H]2O[C@@]3(C)CC[C@H]4[C@H](C)CC[C@@H]1[C@@]24OO3 [ARTENIMOL] | –
